Read-outs that look alike come from different tables or passages of the source.
Assays:
CB receptors = biological target: T1, CB receptors (Rattus norvegicus, UniProt P20272); experiment: [3H]WIN55212-2 competition binding in rat brain membrane homogenate; conditions: for displace [3H]WIN55212-2: rat brain membrane homogenate
T1 construct: Crude membrane fractions were prepared from the brain without cerebellum; from tissue; host or cells: Wistar rat brain without cerebellum, crude membrane fraction
T1 sequence (P20272 whole entry): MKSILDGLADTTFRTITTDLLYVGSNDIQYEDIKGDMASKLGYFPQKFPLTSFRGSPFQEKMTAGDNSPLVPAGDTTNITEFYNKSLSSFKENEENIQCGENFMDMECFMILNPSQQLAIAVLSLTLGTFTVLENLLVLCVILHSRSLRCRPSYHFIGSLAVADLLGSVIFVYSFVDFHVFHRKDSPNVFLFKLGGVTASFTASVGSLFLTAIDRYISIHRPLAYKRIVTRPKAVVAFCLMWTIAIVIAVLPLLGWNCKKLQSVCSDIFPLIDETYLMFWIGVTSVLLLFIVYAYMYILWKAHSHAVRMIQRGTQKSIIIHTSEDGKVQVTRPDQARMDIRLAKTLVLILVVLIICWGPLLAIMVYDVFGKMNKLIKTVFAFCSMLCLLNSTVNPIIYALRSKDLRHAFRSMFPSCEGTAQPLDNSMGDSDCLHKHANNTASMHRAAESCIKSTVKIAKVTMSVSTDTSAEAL
Procedure: (§1) Wistar rats were locally bred and handled according to the European Communities Council Directives (86/609/ECC) and the Hungarian Act for the Protection of Animals in Research (XXVlll.tv. Section 32). Crude membrane fractions were prepared from the brain without cerebellum. Brains were quickly removed from the euthanized rats and directly put in ice-cold 50 mM Tris-HCl buffer (pH 7.4). The collected tissue was then homogenized in 30 volumes (v/w) of ice-cold buffer with a Braun Teflon-glass homogenizer at the highest rpm. The homogenate was centrifuged at 20,000 g for 25 min and the resulting pellet was suspended in the same volume of cold buffer followed by incubation at 37°C for 30 min to remove endogenous ligands. Centrifugation was then repeated. The final pellets were taken up in five volumes of 50 mM Tris-HCl (pH 7.4) buffer containing 0.32 M sucrose and stored at -80°C. Prior to the experiment, aliquots were thawed and centrifuged at 20,000 g for 25 min and the were resuspended in 50 mM Tris-HCl (pH 7.4), homogenized with a Dounce in followed by the determination of the protein concentration by the method of Bradford.
Binding experiments were performed at 30 °C for 1 h in 50 mM Tris-HCl buffer pH 7.4 containing 2.5 mM EGTA, 5 mM MgCl2 and 0.5 mg/mL fatty acid free BSA in plastic tubes in a total assay volume of 1 mL that contained 0.3-0.5 mg/mL membrane protein.
Non-specific binding was determined in the presence of 10 µM WIN 55212-2. The incubation was terminated by diluting the samples with ice-cold wash buffer (50 mM Tris-HCl, 2.5 mM EGTA, 5 mM MgCl2, 0.5% fatty acid free BSA, pH 7.4), followed by repeated washing and rapid filtration through Whatman GF/B glass fiber filters (Whatman Ltd, Maidstone, England) presoaked with 0.1% polyethyleneimine (30 min before the filtration). Filtration was performed with a 24-well Brandel Cell Harvester (Gaithersburg, MD, USA). Filters were air-dried and immersed into Ultima Gold MV scintillation cocktail and then radioactivity was measured with a TRI-CARB 2100TR liquid scintillation analyzer (Packard).
(§2) Results are expressed as means ± S.E.M. of at least three independent experiments each performed in duplicate. In competition binding studies, the inhibitory constants (Ki) were calculated from the inflection points of the displacement curves using non-linear least-square curve fitting and the Cheng- Prusoff equation. All data and curves were analyzed by GraphPad Prism 5.0 (San Diego, CA, USA). In [^35S]GTPγS binding studies, data were expressed as the percentage stimulation of the specific [^35S]GTPγS binding over the basal activity and are given as means ± S.E.M. Each experiment was performed in triplicate and analyzed with sigmoid dose-response curve fitting to obtain potency (EC50) and efficacy (Emax) values. Statistical comparison was done by analysis of variance (one-way ANOVA) followed by the Bonferroni multiple comparison test of GraphPad Prism 5.0 (San Diego, CA, USA), P< 0.05 was chosen to indicate significant differences.

[1] = system: CB receptor-associated G-proteins; experiment: Ligand stimulated [35S]GTPγS binding assay in rat brain membrane homogenate; type: biochemical; conditions: for G-protein stimulation (functional character): rat brain membrane homogenate; for Emax (%) ±SEM: specific [35S]GTPγS binding, basal set as 100%; for Emax (%) ±SEM / EC50: rat brain membranes; for EC50: [35S]GTPγS binding
Procedure: as §1
(§3) Rat brain membranes (30 µg protein/tube) prepared as described above, were incubated with 0.05 nM [^35S]GTPγS (PerkinElmer) and 10^-10-10^-5 M unlabeled ligands in the presence of 30 µM GDP, 100 mM NaCl, 3 mM MgCl2 and 1 mM EGTA in 50 mM Tris-HCl buffer (pH 7.4) for 60 min at 30°C. Basal [^35S]GTPγS binding was measured in the absence of ligands and set as 100%. Nonspecific binding was determined by the addition of 10 µM unlabeled GTPγS and subtracted from total binding. Incubation, filtration and radioactivity measurement of the samples were carried out as described above.
as §2

CB1 receptor = biological target: T2, CB1 receptor (Rattus norvegicus, UniProt P20272); experiment: CB1/CB2 receptor selectivity by [35S]GTPγS binding assay with rimonabant or AM630; type: biochemical; conditions: compound 10 µM; rimonabant 10 µM (CB1) vs AM630 10 µM (CB2)
T2 construct: Crude membrane fractions were prepared from the brain without cerebellum; from tissue; host or cells: Wistar rat brain without cerebellum, crude membrane fraction
T2 sequence (P20272 whole entry): as above
Procedure: Figures represent the specific binding of the radioligand in percentage in the presence of increasing concentrations (10^-10-10^-5 M) of the indicated ligands. "Total" on the x-axis indicates the total specific binding of the radioligand, which is measured in the absence of the unlabeled compounds. […] Figures represent relative specific binding of [^35S]GTPγS in the presence of increasing concentrations (10^-11-10^-5 M) of the indicated compounds. […] The specific binding of [^35S]GTPγS is represented in percentage in the presence or absence of 10 µM rimonabant (CB1 antagonist/inverse agonist) or AM630 (CB2 antagonist/inverse agonist). Data are expressed as percentage of mean specific binding ± S.E.M. (n≥ 3).
as §3
In the next step the compounds were evaluated for CB1/CB2 receptor selectivity by [^35S]GTPγS binding assays. The G-protein stimulatory effect of compounds LONI 1-LONI 9 (10 µM) was reduced by the CB1 receptor antagonist/inverse agonist rimonabant (10 µM) and by the CB2 receptor antagonist/inverse agonist AM630 (10 µM), and a 3-6-fold selectivity for CB1 receptor was observed.

SMILES | Ki (CB receptors) [nM] | G-protein stimulation (functional character) [1] | Emax (%) ±SEM [1] [%] | EC50 ([1]; read-out: EC50) [nM] | EC50 ([1]; read-out: potency) [nM] | selectivity for CB1 receptor (CB1 receptor) [fold] | displace [3H]WIN55212-2 (CB receptors) | Ki (CB receptors; 1.5 nM [3H]WIN55212-2, rat brain membranes, mean of three independent measurements (S.E.M. 5-12%), read-out: Ki (nM)*) [nM]
CC(C)[C@H](NC(=O)c1nn(Cc2ccc(Cl)cc2Cl)c2ccccc12)C(N)=O [LONI 6, (S)-N-(1-amino-3-methyl-1-oxobutan-2-yl)-1-(2,4-dichlorobenzyl)-1H-indazole-3-carboxamide] | 17 | partial agonists | 135 ± 4.9 | – | – | – | – | –
CC(C)(C)[C@H](NC(=O)c1nn(Cc2ccc(Cl)cc2Cl)c2ccccc12)C(=O)O [LONI 1, (S)-2-(1-(2,4-dichlorobenzyl)-1H-indazole-3-carboxamido)-3,3-dimethylbutanoic acid] | 0.08 | weak inverse agonist activity | 84 ± 6.6 | 2800 | 1800 to 3200 | – | – | –
COC(=O)[C@@H](NC(=O)c1nn(Cc2ccc(Cl)cc2Cl)c2ccccc12)C(C)C [LONI 5, (S)-methyl 2-(1-(2,4-dichlorobenzyl)-1H-indazole-3-carboxamido)-3-methylbutanoate] | 1.8 | – | 140 ± 3.7 | – | – | – | – | –
CC(C)[C@H](NC(=O)c1nn(Cc2ccc(Cl)cc2Cl)c2ccccc12)C(=O)O [LONI 4, (S)-2-(1-(2,4-dichlorobenzyl)-1H-indazole-3-carboxamido)-3-methylbutanoic aci] | 2.6 | weak inverse agonist activity | 82 ± 10.6 | 3290 | 1800 to 3200 | 3 | – | –
O=C(O)c1nn(Cc2ccc(Cl)cc2Cl)c2ccccc12 [LONI A, Lonidamine, reference compound] | – | didn't show G-protein stimulation | – | – | – | – | neither LONI A nor its derivatives LONI B and LONI C could displace [^3H]WIN55212-2 | –
COC(=O)[C@@H](NC(=O)c1nn(Cc2ccc(Cl)cc2Cl)c2ccccc12)C(C)(C)C [LONI 2, (S)-methyl 2-(1-(2,4-dichlorobenzyl)-1H-indazole-3-carboxamido)-3,3-dimethylbutanoate] | 3.1 | – | 143 ±5.7 | 8.4 | – | – | – | –
CC(C)(C)[C@H](NC(=O)c1nn(Cc2ccc(Cl)cc2Cl)c2ccccc12)C(N)=O [LONI 3, (S)-N-(1-amino-3,3-dimethyl-1-oxobutan-2-yl)-1-(2,4-dichlorobenzyl)-1H-indazole-3 carboxamide] | 17 | partial agonists | 139 ± 4.5 | 126 | – | 6 | – | –
NC(=O)c1nn(Cc2ccc(Cl)cc2Cl)c2ccccc12 [LONI B, reference compound] | – | weak inverse agonist | 70 ± 8.7 | 2780 | – | – | neither LONI A nor its derivatives LONI B and LONI C could displace [^3H]WIN55212-2 | –
CC(C)C[C@H](NC(=O)c1nn(Cc2ccc(Cl)cc2Cl)c2ccccc12)C(=O)O [LONI 7, (S)-2-(1-(2,4-dichlorobenzyl)-1H-indazole-3-carboxamido)-4-methylpentanoic acid] | 43 | weak inverse agonist activity | 86 ± 9.3 | 1870 | 1800 to 3200 | – | – | –
COC(=O)c1nn(Cc2ccc(Cl)cc2Cl)c2ccccc12 [LONI C, reference compound] | – | weak inverse agonist | 69 ± 2.6 | 3160 | – | – | neither LONI A nor its derivatives LONI B and LONI C could displace [^3H]WIN55212-2 | –
CCCCCn1cc(C(=O)c2cccc3ccccc23)c2ccccc21 [JWH-018, reference compound] | – | – | 163 ± 5.2 | 16 | – | – | – | 3.5
CC(C)C[C@H](NC(=O)c1nn(Cc2ccc(Cl)cc2Cl)c2ccccc12)C(N)=O [LONI 9, (S)-N-(1-amino-4-methyl-1-oxopentan-2-yl)-1-(2,4-dichlorobenzyl)-1H-indazole-3-carboxamide] | 88 | partial agonists | 120 ± 5.9 | – | – | 6 | – | –
COC(=O)[C@H](CC(C)C)NC(=O)c1nn(Cc2ccc(Cl)cc2Cl)c2ccccc12 [LONI 8, (S)-methyl 2-(1-(2,4-dichlorobenzyl)-1H-indazole-3-carboxamido)-4-methylpentanoate] | 63 | – | 122 ± 4.6 | – | – | – | – | –

Source: patent EP3564214B1, “INDAZOLE DERIVATIVES AS MODULATORS OF THE CANNABINOID SYSTEM” (Universita' Degli Studi G. D'annunzio Chieti - Pescara, priority 2018, dated 2019)
